Data published in PubChem BioAssay (NCI).
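GI50: concentration for 50% inhibition of growth. Definition used: TGI = concentration required for complete inhibition of growth.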

Experiments:
Test in all cases: DTP human tumour cell line panel, 384-well format
BT-549 breast = tested on: BT-549 breast
UO-31 renal = tested on: UO-31 renal
NCI-H522 lung = tested on: NCI-H522 lung
HCT-116 colon = tested on: HCT-116 colon
HOP-62 NSCLC = tested on: HOP-62 NSCLC
HCC-2998 colon = tested on: HCC-2998 colon
SW-620 colon = tested on: SW-620 colon
A549 NSCLC = tested on: A549 NSCLC
SK-MEL-5 melanoma = tested on: SK-MEL-5 melanoma
COLO 205 colon = tested on: COLO 205 colon
SNB-19 CNS = tested on: SNB-19 CNS
CAKI-1 renal = tested on: CAKI-1 renal
OVCAR-4 ovarian = tested on: OVCAR-4 ovarian
LOX IMVI melanoma = tested on: LOX IMVI melanoma
MDA-MB-231 breast = tested on: MDA-MB-231 breast
DU-145 prostate = tested on: DU-145 prostate
SK-OV-3 ovarian = tested on: SK-OV-3 ovarian
SF-539 CNS = tested on: SF-539 CNS
M14 melanoma = tested on: M14 melanoma
SR leukemia = tested on: SR leukemia
TK-10 renal = tested on: TK-10 renal
T-47D breast = tested on: T-47D breast
KM12 colon = tested on: KM12 colon
MALME-3M melanoma = tested on: MALME-3M melanoma
NCI/ADR-RES ovarian = tested on: NCI/ADR-RES ovarian
HS 578T breast = tested on: HS 578T breast
EKVX NSCLC = tested on: EKVX NSCLC
UACC-62 melanoma = tested on: UACC-62 melanoma
NCI-H23 lung = tested on: NCI-H23 lung
HCT-15 colon = tested on: HCT-15 colon
PC-3 prostate = tested on: PC-3 prostate
OVCAR-3 ovarian = tested on: OVCAR-3 ovarian
MCF7 breast = tested on: MCF7 breast
MDA-MB-468 breast = tested on: MDA-MB-468 breast
MOLT-4 leukemia = tested on: MOLT-4 leukemia
SF-268 CNS = tested on: SF-268 CNS
RPMI-8226 leukemia = tested on: RPMI-8226 leukemia
K-562 leukemia = tested on: K-562 leukemia
A498 renal = tested on: A498 renal
SF-295 CNS = tested on: SF-295 CNS
HOP-92 NSCLC = tested on: HOP-92 NSCLC
SN12C renal = tested on: SN12C renal
NCI-H226 lung = tested on: NCI-H226 lung
HT29 colon = tested on: HT29 colon
NCI-H322M lung = tested on: NCI-H322M lung
UACC-257 melanoma = tested on: UACC-257 melanoma
MDA-MB-435 melanoma = tested on: MDA-MB-435 melanoma
SNB-75 CNS = tested on: SNB-75 CNS
U251 glioblastoma = tested on: U251 glioblastoma
786-0 renal = tested on: 786-0 renal
HL-60(TB) leukemia = tested on: HL-60(TB) leukemia
RXF 393 renal = tested on: RXF 393 renal
OVCAR-8 ovarian = tested on: OVCAR-8 ovarian
NCI-H460 NSCLC = tested on: NCI-H460 NSCLC
SK-MEL-28 melanoma = tested on: SK-MEL-28 melanoma
CCRF-CEM leukemia = tested on: CCRF-CEM leukemia
IGROV1 ovarian = tested on: IGROV1 ovarian
ACHN renal = tested on: ACHN renal

SMILES: CNCc1ccc(-c2cc(-c3nc(-c4ccc(S(=O)(=O)C(C)C)cc4)cnc3N)on2)cc1
- GI50 (BT-549 breast): 173 nM
- TGI (BT-549 breast): 489 nM
- GI50 (UO-31 renal): 285 nM
- TGI (UO-31 renal): 1400 nM
- GI50 (NCI-H522 lung): 6610 nM
- TGI (NCI-H522 lung): 20200 nM
- GI50 (HCT-116 colon): 242 nM
- TGI (HCT-116 colon): 1330 nM
- GI50 (HOP-62 NSCLC): 291 nM
- TGI (HOP-62 NSCLC): 1460 nM
- GI50 (HCC-2998 colon): 29.5 nM
- TGI (HCC-2998 colon): 192 nM
- GI50 (SW-620 colon): 267 nM
- TGI (SW-620 colon): 1260 nM
- GI50 (A549 NSCLC): 427 nM
- TGI (A549 NSCLC): 1810 nM
- GI50 (SK-MEL-5 melanoma): 1320 nM
- TGI (SK-MEL-5 melanoma): 2600 nM
- GI50 (COLO 205 colon): 1040 nM
- TGI (COLO 205 colon): 6580 nM
- GI50 (SNB-19 CNS): 1130 nM
- TGI (SNB-19 CNS): 2480 nM
- GI50 (CAKI-1 renal): 735 nM
- TGI (CAKI-1 renal): 2050 nM
- GI50 (OVCAR-4 ovarian): 313 nM
- TGI (OVCAR-4 ovarian): 1310 nM
- GI50 (LOX IMVI melanoma): 303 nM
- TGI (LOX IMVI melanoma): 1400 nM
- GI50 (MDA-MB-231 breast): 1210 nM
- TGI (MDA-MB-231 breast): 2730 nM
- GI50 (DU-145 prostate): 250 nM
- TGI (DU-145 prostate): 1320 nM
- GI50 (SK-OV-3 ovarian): 242 nM
- TGI (SK-OV-3 ovarian): 1360 nM
- GI50 (SF-539 CNS): 135 nM
- TGI (SF-539 CNS): 310 nM
- GI50 (M14 melanoma): 318 nM
- TGI (M14 melanoma): 1140 nM
- TGI (SR leukemia): 18.5 nM
- GI50 (TK-10 renal): 57.3 nM
- TGI (TK-10 renal): 347 nM
- GI50 (T-47D breast): 10400 nM
- TGI (T-47D breast): 22200 nM
- GI50 (KM12 colon): 131 nM
- TGI (KM12 colon): 559 nM
- GI50 (MALME-3M melanoma): 307 nM
- TGI (MALME-3M melanoma): 1330 nM
- GI50 (NCI/ADR-RES ovarian): 1310 nM
- TGI (NCI/ADR-RES ovarian): 2680 nM
- GI50 (HS 578T breast): 138 nM
- TGI (HS 578T breast): 454 nM
- GI50 (EKVX NSCLC): 1000 nM
- TGI (EKVX NSCLC): 2230 nM
- GI50 (UACC-62 melanoma): 1060 nM
- TGI (UACC-62 melanoma): 2240 nM
- GI50 (NCI-H23 lung): 162 nM
- TGI (NCI-H23 lung): 916 nM
- GI50 (HCT-15 colon): 127 nM
- TGI (HCT-15 colon): 315 nM
- GI50 (PC-3 prostate): 506 nM
- TGI (PC-3 prostate): 2040 nM
- GI50 (OVCAR-3 ovarian): 145 nM
- TGI (OVCAR-3 ovarian): 1500 nM
- GI50 (MCF7 breast): 105 nM
- TGI (MCF7 breast): 1250 nM
- GI50 (MDA-MB-468 breast): 570 nM
- TGI (MDA-MB-468 breast): 1850 nM
- GI50 (MOLT-4 leukemia): 66.3 nM
- TGI (MOLT-4 leukemia): 204 nM
- GI50 (SF-268 CNS): 781 nM
- TGI (SF-268 CNS): 2060 nM
- GI50 (RPMI-8226 leukemia): 132 nM
- TGI (RPMI-8226 leukemia): 355 nM
- GI50 (K-562 leukemia): 250 nM
- TGI (K-562 leukemia): 1170 nM
- GI50 (A498 renal): 42.2 nM
- TGI (A498 renal): 183 nM
- GI50 (SF-295 CNS): 1060 nM
- TGI (SF-295 CNS): 4100 nM
- GI50 (HOP-92 NSCLC): 336 nM
- TGI (HOP-92 NSCLC): 1410 nM
- GI50 (SN12C renal): 1290 nM
- TGI (SN12C renal): 5490 nM
- GI50 (NCI-H226 lung): 3070 nM
- TGI (NCI-H226 lung): 9520 nM
- GI50 (HT29 colon): 324 nM
- TGI (HT29 colon): 1060 nM
- GI50 (NCI-H322M lung): 139 nM
- TGI (NCI-H322M lung): 1180 nM
- GI50 (UACC-257 melanoma): 248 nM
- TGI (UACC-257 melanoma): 870 nM
- GI50 (MDA-MB-435 melanoma): 484 nM
- TGI (MDA-MB-435 melanoma): 1600 nM
- GI50 (SNB-75 CNS): 1150 nM
- TGI (SNB-75 CNS): 2380 nM
- GI50 (U251 glioblastoma): 460 nM
- TGI (U251 glioblastoma): 1660 nM
- GI50 ([…]-0 renal): 150 nM
- TGI (786-0 renal): 486 nM
- GI50 (HL-60(TB) leukemia): 114 nM
- TGI (HL-60(TB) leukemia): 248 nM
- GI50 (RXF 393 renal): 216 nM
- TGI (RXF 393 renal): 791 nM
- GI50 (OVCAR-8 ovarian): 534 nM
- TGI (OVCAR-8 ovarian): 1770 nM
- GI50 (NCI-H460 NSCLC): 57.5 nM
- TGI (NCI-H460 NSCLC): 334 nM
- GI50 (SK-MEL-28 melanoma): 1420 nM
- TGI (SK-MEL-28 melanoma): 2730 nM
- GI50 (CCRF-CEM leukemia): 40.9 nM
- TGI (CCRF-CEM leukemia): 161 nM
- GI50 (IGROV1 ovarian): 211 nM
- TGI (IGROV1 ovarian): 1340 nM
- GI50 (ACHN renal): 151 nM
- TGI (ACHN renal): 1240 nM
